Source: ChEMBL document CHEMBL4418287, “Lysyl oxidase-like 2 inhibitors and uses thereof” (2018)
Calls of active or inactive are those of the source.

How the values were obtained:
Type in all cases: functional, organism-based
Mus musculus [1] = experiment: Antifibrotic activity in C57BL/6 mouse model of bleomycin-induced lung fibrosis assessed as reduction in cross linked collagen level in lung at 60 mg/kg, po pre-treated 1 hr to 1 day before bleomycin injection and measured after 14 to 28 days by Masson's trichrome staining based assay
Mus musculus [2] = experiment: Antifibrotic activity in C57BL/6 mouse model of bleomycin-induced lung fibrosis assessed as reduction in alpha smooth muscle actin level in lung at 60 mg/kg, po pre-treated 1 hr to 1 day before bleomycin injection and measured after 14 to 28 days by immunohistochemistry analysis
Mus musculus [3] = experiment: Antifibrotic activity in C57BL/6 mouse model of bleomycin-induced lung fibrosis assessed as reduction in cross linked collagen level in lung at 60 mg/kg, po pre-treated 1 hr to 1 day before bleomycin injection and measured after 14 to 28 days by Picro-Sirius staining based assay
Mus musculus [4] = experiment: Antifibrotic activity in C57BL/6 mouse model of bleomycin-induced lung fibrosis assessed as reduction in hydroxyproline in lung homogenates at 60 mg/kg, po pre-treated 1 hr to 1 day before bleomycin injection and measured after 14 to 28 days by chloramine T and Erlich's solution based assay
Mus musculus [5] = experiment: Antifibrotic activity in C57BL/6 mouse model of bleomycin-induced lung fibrosis assessed as reduction in collagen level in lung at 60 mg/kg, po pre-treated 1 hr to 1 day before bleomycin injection and measured after 14 to 28 days by hydroxyproline assay

Measured: Activity

NCc1cc(Oc2cccc(C(=O)NCc3ccnc(Cl)c3)c2)ncn1
active: Mus musculus [1] | Mus musculus [2] | Mus musculus [3] | Mus musculus [4] | Mus musculus [5]

NCc1cc(Oc2cccc(C(=O)N3CCN(c4ccccc4)CC3)c2)ncn1
active: Mus musculus [1] | Mus musculus [2] | Mus musculus [3] | Mus musculus [4] | Mus musculus [5]
